For one assay, the target named is T1, Epac1-ΔDEP1 (Homo sapiens, UniProt O95398).
T1 sequence (O95398 191-923 limits assumed): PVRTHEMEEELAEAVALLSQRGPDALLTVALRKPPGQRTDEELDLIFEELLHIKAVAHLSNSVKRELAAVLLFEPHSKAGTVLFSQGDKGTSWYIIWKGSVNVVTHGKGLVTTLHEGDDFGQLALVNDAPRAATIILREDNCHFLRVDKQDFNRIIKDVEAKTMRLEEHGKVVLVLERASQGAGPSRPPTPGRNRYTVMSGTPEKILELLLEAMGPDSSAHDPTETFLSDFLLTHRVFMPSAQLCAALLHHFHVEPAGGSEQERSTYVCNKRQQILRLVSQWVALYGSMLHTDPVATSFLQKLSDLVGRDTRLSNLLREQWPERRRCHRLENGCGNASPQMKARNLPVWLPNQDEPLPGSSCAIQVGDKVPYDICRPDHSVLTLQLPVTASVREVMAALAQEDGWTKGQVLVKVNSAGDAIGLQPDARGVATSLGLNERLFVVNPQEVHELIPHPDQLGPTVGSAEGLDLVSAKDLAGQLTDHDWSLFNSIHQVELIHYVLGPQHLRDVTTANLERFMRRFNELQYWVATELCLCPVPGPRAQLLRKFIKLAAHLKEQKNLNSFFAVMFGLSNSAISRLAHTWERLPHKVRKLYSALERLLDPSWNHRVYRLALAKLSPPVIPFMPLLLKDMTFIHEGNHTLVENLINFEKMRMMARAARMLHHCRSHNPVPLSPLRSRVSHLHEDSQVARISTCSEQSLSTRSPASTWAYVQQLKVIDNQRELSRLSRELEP
Put plainly: In vitro GEF assay: Epac activity in the exchange reaction towards Rap (mantGDP-loaded Rap1b). On Relative activity of Epac*: key: +++: activity comparible to I-007; ++: activity between I-007 and cAMP; +: activity comparible to cAMP; ±: activity less than cAMP. The assay is classed as biochemical. The procedure: In vitro GEF assays were performed as described (3,16). […] Buffer conditions were 50 mM Tris pH7.4, 150 mM NaCl, 5% glycerol, 5 mM DTE, 60 μM GTP. Reactions were carried out in 96-well plates and measured in a Cary Eclipse from Varian Inc., using the manufacturers software.

A further assay has as its system CREB. Put plainly: CREB phosphorylation in Ovcar3 cells. The note with it: concentration of 200 μM. The assay is classed as cell-based. As to the method:
A: 8-pCPT-2′-O-Me-cAMP stimulates cell adhesion. Upper panel: quantification of Ovcar3 cells adhering to fibronectin after treatment with increasing concentrations of 8-pCPT-2′-O-Me-cAMP. Lower panel: Ovcar3 cells were treated with increasing concentrations of 8-pCPT-2′-O-Me-cAMP for 15 min, cells were lysed and analyzed for activation of Rap1 (upper blot) and CREB (lower blot). Total Rap1 levels are shown (middle blot). B: 8-pCPT-2′-O-Me-cAMP increases the rate of cell adhesion. Upper panel: quantification of Ovcar3 cells adhering to fibronectin at various time points. Lower panel: cells were treated with 60 μM 8-pCPT-2′-O-Me-cAMP for the indicated times. Cell lysates were analyzed for activation of Rap1 (upper blot) and CREB (lower blot). Total levels of Rap1 in cell lysates are shown (middle blot). C: Ovcar3 cells were either pre-incubated at 37° C. for 30 min with the PKA inhibitor H-89 (10 μM) 30 min prior to seeding onto the wells (‘Short’) or H-89 was added 30 min prior to trypsinization and during the recovery period (‘Long’) and seeded onto wells in the absence or presence of 8-pCPT-2′-O-Me-cAMP (100 μM). Cells were allowed to adhere for 1 h. D, cAMP-induced adhesion to fibronectin is blocked by inhibitors of Rap1. […] Cells were treated with 8-Br-cAMP or 8-pCPT-2′-O-Me-cAMP and adhesion to fibronectin was determined. […]

Assay [1] deals with type I holoenzyme of PKA (PKAI). The assay is described as follows: In vitro activation of cAMP-dependent protein kinase, type I holoenzyme (kemptide substrate). The assay is classed as biochemical. The note with it: compared to cAMP, FIG. 5. The procedure: Cyclic AMP dependent protein kinase I and II were reconstituted from isolated subunits and assayed for kinase activity using […] kemptide as substrate, as described previously (15).

Regarding `CO[C@@H]1[C@@H]2OP(=O)(O)OC[C@H]2O[C@H]1n1c(Sc2ccc(Cl)cc2)nc2c(N)ncnc21` [Compound I-007, 8-(4-chloro-phenylthio)-2′-O-methyladenosine-3′,5′-cyclic monophosphate], the “maximal activity of Epac1 compared to cAMP” value at Epac1-ΔDEP1 (in vitro) is recorded as “three-fold higher”. Further, the “Relative activity of Epac*” value on Epac1-ΔDEP1 (in vitro in the exchange reaction towards Rap) is reported as “+++”. Further, the EC50 at Epac1-ΔDEP1 (in vitro, FIG. 4, read-out: Half-maximal activation of Epac1) amounted to 2200 nM. Also, the CREB phosphorylation entry in the assay on CREB is given as “did not induce CREB phosphorylation”. Further, the “ability to activate the type I holoenzyme of PKA” value in assay [1] is recorded as “greatly impaired”.

For the origin of these results see patent publication US7906491B2 (Univisitair Medisch Centrum Utrecht, priority 2002, dated 2011).
